Test results as given in patent publication US20250387359A1, “COMPOUNDS AND METHODS FOR THE TREATMENT OF PARASITIC INFECTIONS” (THE BOARD OF TRUSTEES OF THE UNIVERSITY OF ILLINOIS, priority 2019, published 2025).
Entries after “also recorded” stand apart in the source; their conditions may differ. Read-outs that look alike come from different tables or passages of the source.

How the values were obtained:
[1] = system: Cryptosporidium parvum; assay: In vitro anti-Cryptosporidium effect in HCT-8 cells (immunofluorescence assay); format: cell-based; details: for IC50: Cryptosporidium parvum, HCT-8 cells
Procedure: In vitro testing of the anti-Cryptosporidium effect of CpLDH inhibitors. HCT-8 cells were cultured in supplemented RPMI-1640 medium in 96-well plates. When the cells were confluent, old medium was replaced with fresh medium. To one set of wells, varying concentrations of recombinant CpLDH inhibitors (reconstituted in DMSO and diluted in RPMI medium) were added, while another set was left without inhibitors. Paromomycin was used as a positive control drug reconstituted in distilled sterile water. Then, 4×10^4 freshly excysted sporozoites were added to each well and incubated at 37° C. with 5% CO2. After 2 h incubation, varying concentrations of CpLDH inhibitors were added to the set of infected cells that were not treated initially. Control infected cells without inhibitors, but with added DMSO volumes equivalent to those used in the wells with inhibitors, were included. The cells were maintained in culture for a total of either 48 h or 72 h and processed for immunofluorescence assay as previously described (Int. J. Parasitol. 2017; 47(13), 867-874). Briefly, medium was decanted, and the cells fixed with methanol-acetic acid (9:1) for 2 minutes at room temperature. The cells were rehydrated and permeabilized by two successive washes with buffer (0.1% Triton X-100, 0.35 M NaCl, 0.13 M Tris-base, pH 7.6) and blocked with 5% normal goat serum, followed by staining with antibody to C. parvum (SporoGlo; Waterborn, Inc.) overnight at 4° C. The stained cells were washed twice with PBS, followed by water, and then imaged with an inverted fluorescence microscope. Fluorescence quantification was done using ImageJ version 1.37v software (NIH). Assays were performed in triplicate and repeated at least thrice.

[2] = system: C. parvum; assay: Real-time PCR quantification of C. parvum DNA in fecal samples of infected mice; format: in vivo, Cryptosporidium parvum; details: for fecal C. parvum DNA load: Table 6, infected mice, multiplier printed in next cell
Procedure: In vivo testing of the anti-Cryptosporidium effect of CpLDH inhibitors. Gamma interferon knockout mice (B6.129S7-Ifng), 8 weeks of age, were purchased from Charles River, USA. The care and use of the mice was done following the guidelines of protocol number 17024 approved by the University of Illinois at Urbana-Champaign, USA. The animals were allowed to acclimatize for 1 week before experiments commenced. Stock solutions of recombinant CpLDH inhibitors reconstituted in DMSO were diluted in sterile distilled water to reduce the final amount of DMSO in the solution to less than 1% (v/v) before administering them to mice. Prior to testing the anti-Cryptosporidium effect of the inhibitors in mice, the tolerability of each inhibitor was tested by oral gavage using varying dosages (100-2000 mg/kg body weight) of each inhibitor in groups of mice (three mice for each dose) daily for 7 days. Mice were observed daily for signs of toxicity including changes from normal physical activity, respiration, body temperature, feeding, posture, fur condition or occurrence of death. […] The subsequent dosages of NSC10447 used in the mice infection assays were 250, 500 and 1000 mg/kg mouse body weight, while the NSC158011 dosages used were 100, 200 and 400 mg/kg mouse body weight. Mice were allocated to groups as follows: “Infected plus inhibitor treatment”; “Infected minus inhibitor treatment”; “Uninfected minus inhibitor treatment” and “Infected plus paromomycin treatment”. Each group contained at least three mice. Each mouse in the infection groups received 5,000 C. parvum oocysts (resuspended in 50 μl of PBS) by oral gavage. Mice were housed individually in cages lined with sterile gauze as bedding. One day post-infection (PI), daily oral gavage administration of recombinant CpLDH inhibitor or paromomycin commenced and continued for a total of 7 days. Untreated mice received an equivalent volume of sterile distilled water (containing DMSO equivalent to the amount administered in the inhibitor-treated group) by oral gavage. Fecal pellets were collected daily from each cage and placed in individual sterile 15 ml conical tubes. An equivalent volume of PBS containing a cocktail of penicillin (100 units/ml), streptomycin (100 μg/ml), chloramphenicol (34 μg/ml) and amphotericin (0.25 μg/ml) was added to the fecal samples and stored at 4° C. until use for quantification of C. parvum genomic DNA load. Three independent replicate infection assays were performed. At 9 days PI, mice were euthanized and 5 cm of the distal small intestine resected 2 cm anterior to the cecum and immediately submerged in 4% buffered formalin. The intestinal tissues were submitted for histopathology to the Veterinary Diagnostic Laboratory at the University of Illinois at Urbana-Champaign. Briefly, intestinal tissues preserved in 4% buffered formalin were washed in 70% ethanol and embedded in 1% agar and then processed for paraffin embedding. For hematoxylin and eosin staining, five μm transverse and cross sections were cut and processed and stained following standard procedures of the Veterinary Diagnostic Laboratory. Sections were imaged using a Zeiss microscope and images captured with a color camera.
Quantification of C. parvum shed in mice feces. Genomic DNA was extracted from individual fecal samples collected from mice at different days as described above. For each sample, 220 mg of homogenized feces were used to extract genomic DNA using the QIAamp PowerFecal DNA Kit (Qiagen, USA) following the manufacturer's instructions. Quantification of the amount of C. parvum 18s rRNA gene (GenBank accession number AF164102) was performed essentially as described previously (Int. J. Parasitol. 2018; 48(8), 649-656). Briefly, primers were used to generate a 240 bp amplicon from C. parvum genomic DNA by conventional PCR. […]

[3] = system: C. parvum; assay: Histopathology of distal small intestine of C. parvum infected mice; format: in vivo, Cryptosporidium parvum; details: lower small intestine, H&E, NSC158011 400 mg/kg, NSC10447 250, 500 or 1000 mg/kg, paromomycin 100 mg/kg
Procedure: In vivo testing of the anti-Cryptosporidium effect of CpLDH inhibitors. Gamma interferon knockout mice (B6.129S7-Ifng), 8 weeks of age, were purchased from Charles River, USA. The care and use of the mice was done following the guidelines of protocol number 17024 approved by the University of Illinois at Urbana-Champaign, USA. The animals were allowed to acclimatize for 1 week before experiments commenced. Stock solutions of recombinant CpLDH inhibitors reconstituted in DMSO were diluted in sterile distilled water to reduce the final amount of DMSO in the solution to less than 1% (v/v) before administering them to mice. Prior to testing the anti-Cryptosporidium effect of the inhibitors in mice, the tolerability of each inhibitor was tested by oral gavage using varying dosages (100-2000 mg/kg body weight) of each inhibitor in groups of mice (three mice for each dose) daily for 7 days. Mice were observed daily for signs of toxicity including changes from normal physical activity, respiration, body temperature, feeding, posture, fur condition or occurrence of death. […] The subsequent dosages of NSC10447 used in the mice infection assays were 250, 500 and 1000 mg/kg mouse body weight, while the NSC158011 dosages used were 100, 200 and 400 mg/kg mouse body weight. Mice were allocated to groups as follows: “Infected plus inhibitor treatment”; “Infected minus inhibitor treatment”; “Uninfected minus inhibitor treatment” and “Infected plus paromomycin treatment”. Each group contained at least three mice. Each mouse in the infection groups received 5,000 C. parvum oocysts (resuspended in 50 μl of PBS) by oral gavage. Mice were housed individually in cages lined with sterile gauze as bedding. […] An equivalent volume of PBS containing a cocktail of penicillin (100 units/ml), streptomycin (100 μg/ml), chloramphenicol (34 μg/ml) and amphotericin (0.25 μg/ml) was added to the fecal samples and stored at 4° C. until use for quantification of C. parvum genomic DNA load. […]

O=C1c2ccccc2C(=O)c2c(O)c(O)cc(O)c21 [NSC10447]
effect on C. parvum proliferation in initial screen ([1]; 48 h post-infection, concentrations at least 50% lower than cytotoxicity IC50): significantly (P<0.05) inhibit C. parvum proliferation | IC50 ([1]; 48 h, compound added at the time of infection, read-out: IC50, inhibition of C. parvum growth at 48 h p.i.): 72.7 µM | IC50 ([1]; 72 h, compound added at the time of infection, read-out: IC50, inhibition of C. parvum growth at 72 h p.i.): 83.6 µM | IC50 ([1]; compound added 2 h post-infection, read-out: IC50, inhibition of C. parvum growth at 48 h p.i. (2 h)): 79.5 µM | IC50 ([1]; compound added 2 h post-infection, read-out: IC50, inhibition of C. parvum growth at 72 h p.i. (2 h)): 95.2 µM | lower C. parvum DNA load in feces compared to infected untreated ([2]; NSC10447 at 250, 500 and 1000 mg/kg, day 3 until day 8): at least 50% | fecal C. parvum DNA load ([2]; NSC10447 250 mg/kg, DPI 1): 4.4 ± 0.5 ×10^−10 ng/μL | fecal C. parvum DNA load ([2]; NSC10447 250 mg/kg, DPI 2): 7.3 ± 0.2 ×10^−10 ng/μL | fecal C. parvum DNA load ([2]; NSC10447 250 mg/kg, DPI 3): 1.0 ± 0.1 ×10^−8 ng/μL | fecal C. parvum DNA load ([2]; NSC10447 250 mg/kg, DPI 4): 1.2 ± 0.1 ×10^−7 ng/μL | fecal C. parvum DNA load ([2]; NSC10447 250 mg/kg, DPI 5): 1.2 ± 0.1 ×10^−6 ng/μL | fecal C. parvum DNA load ([2]; NSC10447 250 mg/kg, DPI 6): 4.8 ± 0.2 ×10^−6 ng/μL | fecal C. parvum DNA load ([2]; NSC10447 250 mg/kg, DPI 7): 1.9 ± 0.2 ×10^−5 ng/μL | fecal C. parvum DNA load ([2]; NSC10447 250 mg/kg, DPI 8): 4.7 ± 0.1 ×10^−5 ng/μL | fecal C. parvum DNA load ([2]; NSC10447 500 mg/kg, DPI 1): 1.0 ± 0.5 ×10^−10 ng/μL | fecal C. parvum DNA load ([2]; NSC10447 500 mg/kg, DPI 2): 9.4 ± 0.2 ×10^−10 ng/μL | fecal C. parvum DNA load ([2]; NSC10447 500 mg/kg, DPI 3): 6.7 ± 0.6 ×10^−9 ng/μL | fecal C. parvum DNA load ([2]; NSC10447 500 mg/kg, DPI 4): 1.4 ± 0.1 ×10^−7 ng/μL | fecal C. parvum DNA load ([2]; NSC10447 500 mg/kg, DPI 5): 1.6 ± 0.1 ×10^−6 ng/μL | fecal C. parvum DNA load ([2]; NSC10447 500 mg/kg, DPI 6): 5.9 ± 0.4 ×10^−6 ng/μL | fecal C. parvum DNA load ([2]; NSC10447 500 mg/kg, DPI 7): 9.3 ± 0.2 ×10^−6 ng/μL | fecal C. parvum DNA load ([2]; NSC10447 500 mg/kg, DPI 8): 3.0 ± 0.4 ×10^−5 ng/μL | fecal C. parvum DNA load ([2]; NSC10447 1000 mg/kg, DPI 1): 1.2 ± 0.2 ×10^−9 ng/μL | fecal C. parvum DNA load ([2]; NSC10447 1000 mg/kg, DPI 2): 3.0 ± 0.7 ×10^−9 ng/μL | fecal C. parvum DNA load ([2]; NSC10447 1000 mg/kg, DPI 3): 6.4 ± 0.2 ×10^−9 ng/μL | fecal C. parvum DNA load ([2]; NSC10447 1000 mg/kg, DPI 4): 1.1 ± 0.1 ×10^−7 ng/μL | fecal C. parvum DNA load ([2]; NSC10447 1000 mg/kg, DPI 5): 1.3 ± 0.1 ×10^−6 ng/μL | fecal C. parvum DNA load ([2]; NSC10447 1000 mg/kg, DPI 6): 5.6 ± 0.4 ×10^−6 ng/μL | fecal C. parvum DNA load ([2]; NSC10447 1000 mg/kg, DPI 7): 6.3 ± 0.4 ×10^−6 ng/μL | fecal C. parvum DNA load ([2]; NSC10447 1000 mg/kg, DPI 8): 1.2 ± 0.8 ×10^−6 ng/μL | histopathology of intestinal epithelium and villi [3]: prevented villous atrophy and maintained the integrity of the intestinal mucosa; also recorded: intact intestinal epithelium with prominent villi
